Reference: ChEMBL document CHEMBL5465560, “Selectivity Literature for EUbOPEN Chemogenomic Library” (2024)

Columns and labels:
[1] = molecular target: Cyclin-dependent kinase 8 (Homo sapiens, UniProt P49336); experiment: Selectivity interaction (KinomeScan (DiscoverX)) EUB0000666a CDK8; settings: at 10 µM
[2] = molecular target: Fibroblast growth factor receptor 2 (Homo sapiens) (UniProt P21802); experiment: Selectivity interaction (Kinase panel (DSF assay)) EUB0001558a FGFR2
[3] = molecular target: T1, Ephrin type-B receptor 4 (Homo sapiens) (UniProt P54760); settings: at 10 µM
T1 sequence (whole entry): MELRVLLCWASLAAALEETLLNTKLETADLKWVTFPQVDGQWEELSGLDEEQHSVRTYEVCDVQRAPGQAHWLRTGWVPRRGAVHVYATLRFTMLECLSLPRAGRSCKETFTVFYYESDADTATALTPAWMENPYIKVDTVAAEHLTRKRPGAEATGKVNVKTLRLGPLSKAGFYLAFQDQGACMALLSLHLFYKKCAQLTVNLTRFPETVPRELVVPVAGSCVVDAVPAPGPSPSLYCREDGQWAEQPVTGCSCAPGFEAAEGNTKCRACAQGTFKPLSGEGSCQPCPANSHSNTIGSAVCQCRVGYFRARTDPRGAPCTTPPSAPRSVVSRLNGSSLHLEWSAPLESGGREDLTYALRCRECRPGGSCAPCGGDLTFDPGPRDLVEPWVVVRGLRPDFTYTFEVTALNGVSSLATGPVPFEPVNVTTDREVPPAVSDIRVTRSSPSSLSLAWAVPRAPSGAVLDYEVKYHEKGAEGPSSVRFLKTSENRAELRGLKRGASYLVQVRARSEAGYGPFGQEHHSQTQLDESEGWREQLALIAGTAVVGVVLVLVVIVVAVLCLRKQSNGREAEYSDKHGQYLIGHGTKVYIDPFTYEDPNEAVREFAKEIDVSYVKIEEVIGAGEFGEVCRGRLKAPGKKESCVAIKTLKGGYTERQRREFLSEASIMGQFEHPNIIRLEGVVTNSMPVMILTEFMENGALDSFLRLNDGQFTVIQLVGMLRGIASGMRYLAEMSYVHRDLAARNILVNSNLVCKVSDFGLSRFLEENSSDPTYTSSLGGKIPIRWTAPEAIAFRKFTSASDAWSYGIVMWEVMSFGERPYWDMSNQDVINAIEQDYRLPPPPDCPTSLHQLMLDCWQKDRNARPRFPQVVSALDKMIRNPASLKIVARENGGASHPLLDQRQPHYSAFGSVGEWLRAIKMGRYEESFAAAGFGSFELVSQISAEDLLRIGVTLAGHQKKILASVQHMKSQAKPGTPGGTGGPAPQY

[4] = molecular target: T2, Serine/threonine-protein kinase Sgk3 (Homo sapiens) (UniProt Q96BR1); experiment: Selectivity interaction (Kinase panel (Invitrogen)) EUB0000639a SGK3; settings: at 200 nM
T2 sequence (whole entry): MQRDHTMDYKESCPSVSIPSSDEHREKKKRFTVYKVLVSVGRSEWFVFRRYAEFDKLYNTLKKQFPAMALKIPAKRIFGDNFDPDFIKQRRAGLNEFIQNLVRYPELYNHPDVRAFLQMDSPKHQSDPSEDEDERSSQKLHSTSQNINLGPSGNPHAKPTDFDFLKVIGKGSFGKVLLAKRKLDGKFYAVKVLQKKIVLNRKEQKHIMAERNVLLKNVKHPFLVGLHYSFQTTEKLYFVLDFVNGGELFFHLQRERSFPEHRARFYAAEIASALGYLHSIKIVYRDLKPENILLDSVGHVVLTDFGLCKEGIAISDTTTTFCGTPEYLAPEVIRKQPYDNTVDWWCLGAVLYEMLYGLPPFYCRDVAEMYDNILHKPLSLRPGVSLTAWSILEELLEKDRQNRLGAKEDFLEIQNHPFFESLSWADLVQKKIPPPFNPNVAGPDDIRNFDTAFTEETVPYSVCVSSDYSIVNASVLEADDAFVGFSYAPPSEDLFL

[5] = molecular target: T3, cAMP-dependent protein kinase catalytic subunit PRKX (Homo sapiens) (UniProt P51817); experiment: Selectivity interaction (KinomeScan (DiscoverX)) EUB0000092b PRKX; settings: at 10 µM
T3 sequence (whole entry): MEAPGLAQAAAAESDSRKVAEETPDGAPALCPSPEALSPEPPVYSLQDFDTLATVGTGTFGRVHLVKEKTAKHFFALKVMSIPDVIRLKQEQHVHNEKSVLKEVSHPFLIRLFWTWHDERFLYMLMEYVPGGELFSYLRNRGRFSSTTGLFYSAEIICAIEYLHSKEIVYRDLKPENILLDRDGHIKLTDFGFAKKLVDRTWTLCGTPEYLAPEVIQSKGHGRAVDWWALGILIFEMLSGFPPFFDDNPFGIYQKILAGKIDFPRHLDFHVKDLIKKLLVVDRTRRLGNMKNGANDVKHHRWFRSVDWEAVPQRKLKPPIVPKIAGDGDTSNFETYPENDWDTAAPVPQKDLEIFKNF

[6] = molecular target: T4, Serine/threonine-protein kinase BRSK1 (Homo sapiens) (UniProt Q8TDC3); settings: at 10 µM
T4 sequence (whole entry): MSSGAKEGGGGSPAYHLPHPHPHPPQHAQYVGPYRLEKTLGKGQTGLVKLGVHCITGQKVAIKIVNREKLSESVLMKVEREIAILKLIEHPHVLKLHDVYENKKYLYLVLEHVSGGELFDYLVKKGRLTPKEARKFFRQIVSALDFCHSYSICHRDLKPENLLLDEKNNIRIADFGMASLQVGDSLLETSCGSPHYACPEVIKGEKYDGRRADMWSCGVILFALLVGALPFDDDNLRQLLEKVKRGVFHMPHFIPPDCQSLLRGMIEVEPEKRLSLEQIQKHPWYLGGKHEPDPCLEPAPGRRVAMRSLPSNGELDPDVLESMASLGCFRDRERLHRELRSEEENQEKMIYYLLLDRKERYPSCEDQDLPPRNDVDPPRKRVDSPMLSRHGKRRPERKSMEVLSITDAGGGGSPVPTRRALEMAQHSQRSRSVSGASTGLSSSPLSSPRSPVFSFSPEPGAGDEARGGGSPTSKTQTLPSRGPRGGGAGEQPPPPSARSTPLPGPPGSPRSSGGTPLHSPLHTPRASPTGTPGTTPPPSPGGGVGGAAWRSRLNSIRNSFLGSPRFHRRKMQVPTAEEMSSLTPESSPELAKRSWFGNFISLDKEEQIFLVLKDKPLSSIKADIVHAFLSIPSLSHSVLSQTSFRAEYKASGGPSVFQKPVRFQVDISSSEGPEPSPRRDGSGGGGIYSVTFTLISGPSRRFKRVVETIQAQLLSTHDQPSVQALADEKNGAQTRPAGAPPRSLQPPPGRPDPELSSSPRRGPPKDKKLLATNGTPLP

[7] = molecular target: Ribosomal protein S6 kinase alpha-1 (Homo sapiens, UniProt Q15418); experiment: Selectivity interaction (ProQinase) EUB0000171b RPS6KA1
Sequence of Ribosomal protein S6 kinase alpha-1 (Q15418 whole entry): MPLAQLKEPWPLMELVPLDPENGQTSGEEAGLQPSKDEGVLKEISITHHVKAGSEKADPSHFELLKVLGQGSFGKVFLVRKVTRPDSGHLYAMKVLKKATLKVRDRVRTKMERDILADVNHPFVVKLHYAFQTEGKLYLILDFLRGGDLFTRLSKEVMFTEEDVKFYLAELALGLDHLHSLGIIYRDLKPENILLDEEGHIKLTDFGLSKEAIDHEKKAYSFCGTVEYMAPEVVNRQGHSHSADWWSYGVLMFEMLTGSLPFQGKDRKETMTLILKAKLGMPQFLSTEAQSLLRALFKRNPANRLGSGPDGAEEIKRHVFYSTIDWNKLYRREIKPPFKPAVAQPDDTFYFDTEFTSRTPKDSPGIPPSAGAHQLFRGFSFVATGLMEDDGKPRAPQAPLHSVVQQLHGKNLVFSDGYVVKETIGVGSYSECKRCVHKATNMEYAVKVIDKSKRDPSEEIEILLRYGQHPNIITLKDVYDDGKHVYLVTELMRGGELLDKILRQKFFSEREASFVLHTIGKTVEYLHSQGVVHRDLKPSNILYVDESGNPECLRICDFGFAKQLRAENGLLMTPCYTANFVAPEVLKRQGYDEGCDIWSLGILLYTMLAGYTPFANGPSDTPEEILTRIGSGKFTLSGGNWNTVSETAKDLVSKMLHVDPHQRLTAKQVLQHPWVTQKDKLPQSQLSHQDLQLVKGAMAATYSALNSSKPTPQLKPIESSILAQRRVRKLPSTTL

Sequence of Fibroblast growth factor receptor 2 (Homo sapiens) (P21802 22-821 limits assumed): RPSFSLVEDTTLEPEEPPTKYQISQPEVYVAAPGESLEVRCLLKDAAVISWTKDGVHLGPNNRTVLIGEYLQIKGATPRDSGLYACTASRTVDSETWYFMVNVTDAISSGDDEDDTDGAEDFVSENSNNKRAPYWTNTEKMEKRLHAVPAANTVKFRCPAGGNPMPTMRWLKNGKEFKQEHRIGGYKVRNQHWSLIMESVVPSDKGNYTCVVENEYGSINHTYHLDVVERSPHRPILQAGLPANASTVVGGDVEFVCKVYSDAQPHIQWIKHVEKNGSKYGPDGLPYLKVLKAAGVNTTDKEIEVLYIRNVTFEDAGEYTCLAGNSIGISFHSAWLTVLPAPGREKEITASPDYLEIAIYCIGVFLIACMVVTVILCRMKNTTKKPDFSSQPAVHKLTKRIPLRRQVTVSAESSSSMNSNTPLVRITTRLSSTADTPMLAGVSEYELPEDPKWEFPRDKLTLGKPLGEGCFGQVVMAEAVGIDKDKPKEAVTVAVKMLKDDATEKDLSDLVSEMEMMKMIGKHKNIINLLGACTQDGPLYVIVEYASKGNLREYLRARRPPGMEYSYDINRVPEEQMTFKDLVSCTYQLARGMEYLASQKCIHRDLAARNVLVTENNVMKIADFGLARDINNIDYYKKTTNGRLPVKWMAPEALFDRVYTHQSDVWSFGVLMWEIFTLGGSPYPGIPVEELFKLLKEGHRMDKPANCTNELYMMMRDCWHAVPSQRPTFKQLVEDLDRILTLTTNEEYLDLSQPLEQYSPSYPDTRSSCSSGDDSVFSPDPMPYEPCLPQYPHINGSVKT
Sequence of Cyclin-dependent kinase 8 (P49336 whole entry): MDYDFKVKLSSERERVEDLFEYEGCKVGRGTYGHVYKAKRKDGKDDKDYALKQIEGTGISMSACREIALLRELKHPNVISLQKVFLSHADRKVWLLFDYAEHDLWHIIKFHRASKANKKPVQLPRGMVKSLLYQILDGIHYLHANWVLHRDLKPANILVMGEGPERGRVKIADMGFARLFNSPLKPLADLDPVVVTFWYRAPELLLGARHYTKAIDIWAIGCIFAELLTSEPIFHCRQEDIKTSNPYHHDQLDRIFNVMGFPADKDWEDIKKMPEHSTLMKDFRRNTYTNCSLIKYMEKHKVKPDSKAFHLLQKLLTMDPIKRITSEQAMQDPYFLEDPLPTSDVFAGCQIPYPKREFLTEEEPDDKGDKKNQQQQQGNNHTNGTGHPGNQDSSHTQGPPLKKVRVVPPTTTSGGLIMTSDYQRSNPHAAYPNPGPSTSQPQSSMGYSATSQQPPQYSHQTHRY

For `O=C(NOC[C@H](O)CO)c1ccc(F)c(F)c1Nc1ccc(I)cc1F`, the % of control [1] was 100%.

`CC(C)(O)[C@H](F)CN1Cc2cc(NC(=O)c3cnn4cccnc34)c(N3CCOCC3)cc2C1=O` was tested, and the dTM [2] was 1 K.

With `CCN(CC)CCCCNc1ncc2cc(-c3cc(OC)cc(OC)c3)c(NC(=O)NC(C)(C)C)nc2n1` the % of control [3] was 100%.

For `CC[C@@H]1[C@H](F)C(=O)N[C@@H]1COc1nccc2cc(C(N)=O)c(OC)cc12` [ZIMLOVISERTIB], the % of inhibition [4] was 1.19%.

In the case of `CCC(=O)N1CCN(c2ccc(-n3c(=O)ccc4cnc5ccc(-c6cnc7ccccc7c6)cc5c43)cc2C(F)(F)F)CC1`, the % of control [5] is reported as 83%.

`Cc1cc([C@@H](C)Nc2ccccc2C(=O)O)c2nc(N3CCOCC3)cc(=O)n2c1` [AZD-6482] showed a % of control [6] of 99%.

`C=CC(=O)Nc1cccc(C(=O)Nc2ccc(Nc3cc(-c4[nH]c(SC)nc4C)ccn3)cc2)c1` showed a % of control ([7]; at 1 µM) of 82% and a % of control ([7]; at 5 µM) of 64%.
